Laboratory results reported in ChEMBL document CHEMBL3991601, “The target landscape of clinical kinase drugs” (Science, 2017).
Activity calls are given as the source filed them.

Legend:
[1] = target: Tyrosine-protein kinase Yes (Homo sapiens, UniProt P07947)
[2] = target: T1, Glycogen phosphorylase, brain form (Homo sapiens, UniProt P11216)
T1 sequence (P11216 whole entry): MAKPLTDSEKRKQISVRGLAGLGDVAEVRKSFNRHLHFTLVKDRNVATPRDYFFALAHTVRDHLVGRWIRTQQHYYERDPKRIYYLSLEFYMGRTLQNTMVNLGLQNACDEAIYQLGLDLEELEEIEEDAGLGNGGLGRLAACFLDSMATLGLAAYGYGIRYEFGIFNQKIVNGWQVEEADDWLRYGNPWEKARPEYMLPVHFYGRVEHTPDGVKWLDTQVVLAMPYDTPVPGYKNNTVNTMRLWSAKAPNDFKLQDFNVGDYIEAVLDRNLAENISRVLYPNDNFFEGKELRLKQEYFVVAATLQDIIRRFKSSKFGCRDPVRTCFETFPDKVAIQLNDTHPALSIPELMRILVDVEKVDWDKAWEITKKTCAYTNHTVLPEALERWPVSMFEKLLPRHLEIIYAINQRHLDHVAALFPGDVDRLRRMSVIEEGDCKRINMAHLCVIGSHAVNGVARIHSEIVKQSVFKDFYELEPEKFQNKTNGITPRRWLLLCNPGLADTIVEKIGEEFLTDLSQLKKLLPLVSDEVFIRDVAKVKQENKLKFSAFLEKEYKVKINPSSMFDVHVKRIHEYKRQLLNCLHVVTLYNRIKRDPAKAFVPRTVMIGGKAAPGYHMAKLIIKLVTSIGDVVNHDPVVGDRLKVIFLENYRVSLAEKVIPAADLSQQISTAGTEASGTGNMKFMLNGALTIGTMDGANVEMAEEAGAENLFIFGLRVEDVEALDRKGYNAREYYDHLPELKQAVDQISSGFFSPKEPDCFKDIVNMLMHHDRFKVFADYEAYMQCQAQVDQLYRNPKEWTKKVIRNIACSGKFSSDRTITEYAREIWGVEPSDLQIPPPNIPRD

[3] = target: Mitogen-activated protein kinase 7 (Homo sapiens, UniProt Q13164)
Chain of Mitogen-activated protein kinase 7 (Q13164 whole entry): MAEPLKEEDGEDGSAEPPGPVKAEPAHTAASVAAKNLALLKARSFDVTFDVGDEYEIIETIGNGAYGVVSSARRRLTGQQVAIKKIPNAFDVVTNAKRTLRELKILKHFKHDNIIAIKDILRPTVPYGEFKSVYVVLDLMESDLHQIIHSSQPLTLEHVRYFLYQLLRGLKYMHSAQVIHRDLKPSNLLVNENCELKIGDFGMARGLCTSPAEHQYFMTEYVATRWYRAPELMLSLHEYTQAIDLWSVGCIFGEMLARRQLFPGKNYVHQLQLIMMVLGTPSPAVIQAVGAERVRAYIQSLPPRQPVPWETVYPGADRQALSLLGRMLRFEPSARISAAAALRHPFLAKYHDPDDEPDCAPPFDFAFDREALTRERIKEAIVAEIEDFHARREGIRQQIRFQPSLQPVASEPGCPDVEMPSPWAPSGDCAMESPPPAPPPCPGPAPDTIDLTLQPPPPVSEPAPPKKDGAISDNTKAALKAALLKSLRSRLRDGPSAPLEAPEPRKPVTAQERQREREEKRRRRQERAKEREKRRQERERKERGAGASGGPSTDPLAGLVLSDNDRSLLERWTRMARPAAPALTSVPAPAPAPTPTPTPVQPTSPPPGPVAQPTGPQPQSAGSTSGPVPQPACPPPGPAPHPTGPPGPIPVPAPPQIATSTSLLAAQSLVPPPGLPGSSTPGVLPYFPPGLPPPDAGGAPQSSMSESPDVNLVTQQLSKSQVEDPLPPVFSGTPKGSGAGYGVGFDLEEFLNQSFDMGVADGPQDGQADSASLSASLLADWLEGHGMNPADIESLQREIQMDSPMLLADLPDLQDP

[4] = target: T2, Ras-related protein Rab-27A (Homo sapiens, UniProt P51159)
T2 sequence (P51159 whole entry): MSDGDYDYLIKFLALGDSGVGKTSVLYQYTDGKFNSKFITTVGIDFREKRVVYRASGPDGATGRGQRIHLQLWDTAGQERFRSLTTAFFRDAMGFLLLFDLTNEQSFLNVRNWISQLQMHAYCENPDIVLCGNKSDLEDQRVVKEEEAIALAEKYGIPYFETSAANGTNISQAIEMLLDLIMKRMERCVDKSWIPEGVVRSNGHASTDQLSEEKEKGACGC

[5] = target: Citron Rho-interacting kinase (Homo sapiens, UniProt O14578)
Chain of Citron Rho-interacting kinase (O14578 whole entry): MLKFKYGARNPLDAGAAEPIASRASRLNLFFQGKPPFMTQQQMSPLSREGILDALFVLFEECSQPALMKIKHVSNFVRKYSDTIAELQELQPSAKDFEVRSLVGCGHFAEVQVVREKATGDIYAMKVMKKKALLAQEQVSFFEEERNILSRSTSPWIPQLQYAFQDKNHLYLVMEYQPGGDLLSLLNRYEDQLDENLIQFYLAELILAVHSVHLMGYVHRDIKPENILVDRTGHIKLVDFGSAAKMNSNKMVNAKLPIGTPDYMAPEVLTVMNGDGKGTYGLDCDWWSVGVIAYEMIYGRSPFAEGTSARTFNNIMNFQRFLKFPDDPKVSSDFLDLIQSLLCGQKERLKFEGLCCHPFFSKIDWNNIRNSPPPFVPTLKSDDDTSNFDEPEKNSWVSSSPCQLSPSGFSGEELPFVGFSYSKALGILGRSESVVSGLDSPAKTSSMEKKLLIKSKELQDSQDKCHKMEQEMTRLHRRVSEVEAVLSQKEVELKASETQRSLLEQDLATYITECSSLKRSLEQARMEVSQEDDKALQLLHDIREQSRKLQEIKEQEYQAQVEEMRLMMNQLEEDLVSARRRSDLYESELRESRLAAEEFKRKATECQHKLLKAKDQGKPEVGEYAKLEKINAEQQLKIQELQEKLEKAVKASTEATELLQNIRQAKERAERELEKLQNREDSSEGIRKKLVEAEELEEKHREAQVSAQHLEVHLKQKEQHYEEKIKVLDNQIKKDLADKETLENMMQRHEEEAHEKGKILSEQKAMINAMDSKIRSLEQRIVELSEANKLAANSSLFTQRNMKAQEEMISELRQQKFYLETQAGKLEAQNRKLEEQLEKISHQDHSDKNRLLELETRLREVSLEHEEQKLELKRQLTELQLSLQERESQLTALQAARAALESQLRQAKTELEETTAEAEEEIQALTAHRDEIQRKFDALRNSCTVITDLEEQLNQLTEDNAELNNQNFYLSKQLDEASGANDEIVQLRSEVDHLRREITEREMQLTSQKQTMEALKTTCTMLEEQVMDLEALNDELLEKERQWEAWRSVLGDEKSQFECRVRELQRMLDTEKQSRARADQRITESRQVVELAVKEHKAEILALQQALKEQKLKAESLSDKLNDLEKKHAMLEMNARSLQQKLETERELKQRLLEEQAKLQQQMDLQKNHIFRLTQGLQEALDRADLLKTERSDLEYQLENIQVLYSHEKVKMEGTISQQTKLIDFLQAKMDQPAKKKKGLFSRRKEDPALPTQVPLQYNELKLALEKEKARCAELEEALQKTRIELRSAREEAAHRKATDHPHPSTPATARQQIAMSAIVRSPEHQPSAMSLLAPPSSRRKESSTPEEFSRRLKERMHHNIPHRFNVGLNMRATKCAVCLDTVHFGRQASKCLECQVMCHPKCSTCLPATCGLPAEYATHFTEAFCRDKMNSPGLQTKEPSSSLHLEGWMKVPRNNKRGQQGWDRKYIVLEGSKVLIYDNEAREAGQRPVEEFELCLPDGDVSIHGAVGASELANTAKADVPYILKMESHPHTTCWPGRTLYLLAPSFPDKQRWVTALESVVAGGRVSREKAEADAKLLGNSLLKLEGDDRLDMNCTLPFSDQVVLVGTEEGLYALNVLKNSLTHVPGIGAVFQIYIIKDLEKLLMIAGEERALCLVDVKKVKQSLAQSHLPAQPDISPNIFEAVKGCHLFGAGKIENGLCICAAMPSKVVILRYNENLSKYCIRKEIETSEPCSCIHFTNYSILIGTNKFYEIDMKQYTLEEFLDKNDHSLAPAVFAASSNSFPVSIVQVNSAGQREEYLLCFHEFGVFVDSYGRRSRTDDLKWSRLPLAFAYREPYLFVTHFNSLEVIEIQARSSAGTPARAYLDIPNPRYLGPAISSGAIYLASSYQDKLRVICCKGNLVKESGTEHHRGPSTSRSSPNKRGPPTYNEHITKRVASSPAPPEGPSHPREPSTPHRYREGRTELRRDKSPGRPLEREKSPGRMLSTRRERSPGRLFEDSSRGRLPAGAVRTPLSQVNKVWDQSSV

[6] = target: T3, Signal recognition particle receptor subunit alpha (Homo sapiens, UniProt P08240)
T3 sequence (P08240 whole entry): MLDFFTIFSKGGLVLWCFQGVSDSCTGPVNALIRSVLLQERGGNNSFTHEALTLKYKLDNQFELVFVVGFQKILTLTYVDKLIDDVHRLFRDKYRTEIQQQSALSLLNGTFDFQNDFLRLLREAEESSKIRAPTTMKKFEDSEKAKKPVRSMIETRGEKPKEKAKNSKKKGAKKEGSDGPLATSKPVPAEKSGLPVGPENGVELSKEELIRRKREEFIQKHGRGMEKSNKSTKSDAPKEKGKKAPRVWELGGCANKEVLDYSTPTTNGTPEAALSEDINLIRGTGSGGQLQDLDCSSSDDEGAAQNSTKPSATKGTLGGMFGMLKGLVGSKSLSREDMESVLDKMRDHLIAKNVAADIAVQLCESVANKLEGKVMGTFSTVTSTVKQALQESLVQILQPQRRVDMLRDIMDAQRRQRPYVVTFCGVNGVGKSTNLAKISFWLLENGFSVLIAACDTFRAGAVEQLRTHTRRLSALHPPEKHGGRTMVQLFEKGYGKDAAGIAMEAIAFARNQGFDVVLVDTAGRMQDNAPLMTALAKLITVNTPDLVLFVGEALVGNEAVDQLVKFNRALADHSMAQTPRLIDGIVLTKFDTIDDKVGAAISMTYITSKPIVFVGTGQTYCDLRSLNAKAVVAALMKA

[7] = target: Serine/threonine-protein kinase PAK 4 (Homo sapiens, UniProt O96013)
Chain of Serine/threonine-protein kinase PAK 4 (O96013 whole entry): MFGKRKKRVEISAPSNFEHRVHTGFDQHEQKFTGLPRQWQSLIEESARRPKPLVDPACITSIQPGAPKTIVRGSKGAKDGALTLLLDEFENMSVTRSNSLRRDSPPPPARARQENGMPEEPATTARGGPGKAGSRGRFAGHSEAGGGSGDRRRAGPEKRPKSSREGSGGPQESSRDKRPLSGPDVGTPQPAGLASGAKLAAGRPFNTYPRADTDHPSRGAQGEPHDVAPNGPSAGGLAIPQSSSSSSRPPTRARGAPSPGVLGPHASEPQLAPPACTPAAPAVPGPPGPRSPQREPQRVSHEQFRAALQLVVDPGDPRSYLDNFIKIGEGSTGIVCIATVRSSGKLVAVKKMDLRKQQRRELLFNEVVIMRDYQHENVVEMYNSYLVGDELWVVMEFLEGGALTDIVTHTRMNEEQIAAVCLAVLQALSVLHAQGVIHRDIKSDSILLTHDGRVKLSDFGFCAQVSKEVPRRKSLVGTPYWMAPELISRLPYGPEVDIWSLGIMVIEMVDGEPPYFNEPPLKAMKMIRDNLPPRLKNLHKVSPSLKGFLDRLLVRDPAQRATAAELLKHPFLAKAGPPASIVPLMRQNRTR

[8] = target: T4, Serine/threonine-protein kinase Nek2 (Homo sapiens, UniProt P51955)
T4 sequence (P51955 whole entry): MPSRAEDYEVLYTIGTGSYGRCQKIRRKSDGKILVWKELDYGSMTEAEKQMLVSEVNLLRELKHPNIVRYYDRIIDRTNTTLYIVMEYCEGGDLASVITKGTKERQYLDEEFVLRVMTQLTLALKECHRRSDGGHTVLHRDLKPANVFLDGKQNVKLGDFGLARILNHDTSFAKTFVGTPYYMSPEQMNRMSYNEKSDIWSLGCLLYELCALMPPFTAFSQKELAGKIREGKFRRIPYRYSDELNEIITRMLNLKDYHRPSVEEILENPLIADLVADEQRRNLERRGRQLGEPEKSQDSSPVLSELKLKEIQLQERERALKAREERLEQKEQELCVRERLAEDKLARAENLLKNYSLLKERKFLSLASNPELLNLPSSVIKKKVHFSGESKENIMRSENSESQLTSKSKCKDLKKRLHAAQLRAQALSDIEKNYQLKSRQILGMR

[9] = target: Cyclin-dependent kinase 1 (Homo sapiens, UniProt P06493)
Chain of Cyclin-dependent kinase 1 (P06493 whole entry): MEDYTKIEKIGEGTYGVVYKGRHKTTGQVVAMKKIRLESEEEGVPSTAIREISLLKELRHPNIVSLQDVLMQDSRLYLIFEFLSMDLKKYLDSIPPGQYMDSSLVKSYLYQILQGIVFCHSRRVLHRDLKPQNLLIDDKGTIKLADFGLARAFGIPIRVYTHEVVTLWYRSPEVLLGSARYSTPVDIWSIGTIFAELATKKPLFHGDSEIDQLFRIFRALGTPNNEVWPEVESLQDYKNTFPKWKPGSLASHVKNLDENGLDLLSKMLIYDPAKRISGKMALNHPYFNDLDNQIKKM
Also: in the data inactive means no Kd found up to 30 µM.

Chain of Tyrosine-protein kinase Yes (P07947 whole entry): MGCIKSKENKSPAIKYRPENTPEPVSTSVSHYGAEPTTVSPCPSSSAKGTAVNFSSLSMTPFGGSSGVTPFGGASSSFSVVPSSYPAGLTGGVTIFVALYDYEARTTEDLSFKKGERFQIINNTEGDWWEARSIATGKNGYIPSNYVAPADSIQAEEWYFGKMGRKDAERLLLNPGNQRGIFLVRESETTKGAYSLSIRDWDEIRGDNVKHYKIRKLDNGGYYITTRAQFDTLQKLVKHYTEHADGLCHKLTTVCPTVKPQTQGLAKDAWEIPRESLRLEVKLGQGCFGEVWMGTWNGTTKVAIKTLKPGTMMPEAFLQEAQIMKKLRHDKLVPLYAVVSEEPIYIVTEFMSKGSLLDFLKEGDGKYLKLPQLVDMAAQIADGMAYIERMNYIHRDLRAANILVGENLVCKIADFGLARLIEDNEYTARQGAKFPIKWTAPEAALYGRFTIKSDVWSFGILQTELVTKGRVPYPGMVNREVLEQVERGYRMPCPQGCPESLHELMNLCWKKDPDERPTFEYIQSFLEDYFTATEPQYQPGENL

SMILES | Kd [1] | Kd [2] | Kd [3] | Kd [4] | Kd [5] | Kd [6] | Kd [7] | Kd [8] | Kd [9]
CCc1cnn2c(NCc3ccc[n+]([O-])c3)cc(N3CCCC[C@H]3CCO)nc12 [DINACICLIB] | > 30 µM (inactive) | > 30 µM (inactive) | > 30 µM (inactive) | > 30 µM (inactive) | > 30 µM (inactive) | > 30 µM (inactive) | – | – | –
Cn1ncc(Cl)c1-c1cc(C(=O)N[C@H](CN)Cc2cccc(F)c2)sc1Cl [AFURESERTIB] | > 30 µM (inactive) | > 30 µM (inactive) | > 30 µM (inactive) | – | 4.26 µM (active) | – | > 30 µM (inactive) | > 30 µM (inactive) | > 30 µM (inactive)
CC[C@H](Nc1ncnc2[nH]cnc12)c1nc2cccc(F)c2c(=O)n1-c1ccccc1 [IDELALISIB] | > 30 µM (inactive) | > 30 µM (inactive) | > 30 µM (inactive) | > 30 µM (inactive) | > 30 µM (inactive) | > 30 µM (inactive) | > 30 µM (inactive) | > 30 µM (inactive) | > 30 µM (inactive)
CN(C)C(=O)c1cc2cnc(Nc3ccc(N4CCNCC4)cn3)nc2n1C1CCCC1 [RIBOCICLIB] | > 30 µM (inactive) | > 30 µM (inactive) | > 30 µM (inactive) | > 30 µM (inactive) | > 30 µM (inactive) | > 30 µM (inactive) | > 30 µM (inactive) | > 30 µM (inactive) | –
OCCn1cc(-c2cnc3nnn(Cc4ccc5ncccc5c4)c3n2)cn1 [PF-04217903] | > 30 µM (inactive) | > 30 µM (inactive) | > 30 µM (inactive) | > 30 µM (inactive) | > 30 µM (inactive) | – | – | – | > 30 µM (inactive)
CN1CCN(c2ccc3nc(-c4c(N)c5c(F)cccc5[nH]c4=O)[nH]c3c2)CC1 [DOVITINIB] | – | > 30 µM (inactive) | – | > 30 µM (inactive) | – | – | – | – | > 30 µM (inactive)
Cc1cc(Nc2cc(N3CCN(C)CC3)nc(/C=C/c3ccccc3)n2)n[nH]1 [ENMD-2076] | 0.441 µM (active) | > 30 µM (inactive) | > 30 µM (inactive) | > 30 µM (inactive) | > 30 µM (inactive) | 0.008 µM | – | – | –
N[C@@H]1CCCN(c2c(/C=C3\SC(=O)NC3=O)cccc2-c2ccccc2)C1 | > 30 µM (inactive) | > 30 µM (inactive) | – | > 30 µM (inactive) | > 30 µM (inactive) | > 30 µM (inactive) | > 30 µM (inactive) | > 30 µM (inactive) | > 30 µM (inactive)
CNC(=O)CN1CCC(Oc2cc3c(Nc4cccc(Cl)c4F)ncnc3cc2OC)CC1 [SAPITINIB] | > 30 µM (inactive) | > 30 µM (inactive) | > 30 µM (inactive) | > 30 µM (inactive) | > 30 µM (inactive) | – | > 30 µM (inactive) | > 30 µM (inactive) | > 30 µM (inactive)
COc1cc(CCc2cc(NC(=O)c3ccc(N4C[C@@H](C)N[C@@H](C)C4)cc3)n[nH]2)cc(OC)c1 [AZD-4547] | > 30 µM (inactive) | > 30 µM (inactive) | > 30 µM (inactive) | – | > 30 µM (inactive) | > 30 µM (inactive) | > 30 µM (inactive) | > 30 µM (inactive) | > 30 µM (inactive)
CNC(=O)c1ccc(C)c(-n2c(C)cc(OCc3ccc(F)cc3F)c(Br)c2=O)c1 [PH-797804] | > 30 µM (inactive) | > 30 µM (inactive) | > 30 µM (inactive) | – | > 30 µM (inactive) | – | > 30 µM (inactive) | > 30 µM (inactive) | > 30 µM (inactive)
CCN1CCN(Cc2ccc(-c3cc4c(N[C@H](C)c5ccccc5)ncnc4[nH]3)cc2)CC1 [AEE-788] | – | > 30 µM (inactive) | > 30 µM (inactive) | > 30 µM (inactive) | > 30 µM (inactive) | > 30 µM (inactive) | > 30 µM (inactive) | > 30 µM (inactive) | > 30 µM (inactive)
CCn1c(-c2nonc2N)nc2c(C#CC(C)(C)O)ncc(OC[C@H]3CCCNC3)c21 [GSK-690693] | – | > 30 µM (inactive) | – | > 30 µM (inactive) | – | > 30 µM (inactive) | – | – | > 30 µM (inactive)
O=C(Nc1cccc(Cl)c1)Nc1ncc(CCNc2ncnc3ccsc23)s1 [SNS-314] | > 30 µM (inactive) | > 30 µM (inactive) | – | > 30 µM (inactive) | – | – | – | – | –
C1=C/COCc2cc(ccc2OCCN2CCCC2)Nc2nccc(n2)-c2cccc(c2)COC/1 [PACRITINIB] | > 30 µM (inactive) | > 30 µM (inactive) | – | – | > 30 µM (inactive) | > 30 µM (inactive) | > 30 µM (inactive) | > 30 µM (inactive) | > 30 µM (inactive)
C[C@@H](c1ccc2nccn2c1)n1nnc2ncc(-c3cnn(C)c3)nc21 [SAVOLITINIB] | > 30 µM (inactive) | > 30 µM (inactive) | > 30 µM (inactive) | > 30 µM (inactive) | > 30 µM (inactive) | > 30 µM (inactive) | > 30 µM (inactive) | – | > 30 µM (inactive)
Cc1cn(-c2cc(NC(=O)c3ccc(C)c(Nc4nccc(-c5cccnc5)n4)c3)cc(C(F)(F)F)c2)cn1 [NILOTINIB] | – | – | – | > 30 µM (inactive) | – | > 30 µM (inactive) | – | – | > 30 µM (inactive)
Nc1nc(N)c2nc(-c3cccc(O)c3)c(-c3cccc(O)c3)nc2n1 [TG100-115] | – | > 30 µM (inactive) | – | > 30 µM (inactive) | – | > 30 µM (inactive) | – | – | > 30 µM (inactive)
COC(=O)[C@@]1(O)C[C@H]2O[C@]1(C)n1c3ccccc3c3c4c(c5c6ccccc6n2c5c31)C(=O)NC4 [K-252A] | > 30 µM (inactive) | > 30 µM (inactive) | > 30 µM (inactive) | > 30 µM (inactive) | > 30 µM (inactive) | – | 0.344 µM (active) | > 30 µM (inactive) | > 30 µM (inactive)
Cc1nc(N)sc1-c1ccnc(Nc2ccc(N3CCOCC3)cc2)n1 [CYC-116] | > 30 µM (inactive) | > 30 µM (inactive) | > 30 µM (inactive) | > 30 µM (inactive) | 1.1 µM (active) | > 30 µM (inactive) | – | – | –
CCCS(=O)(=O)Nc1ccc(F)c(C(=O)c2c[nH]c3ncc(-c4ccc(Cl)cc4)cc23)c1F [VEMURAFENIB] | > 30 µM (inactive) | > 30 µM (inactive) | > 30 µM (inactive) | > 30 µM (inactive) | > 30 µM (inactive) | – | > 30 µM (inactive) | > 30 µM (inactive) | > 30 µM (inactive)
